Each compound was assayed on G. duodenalis BRIS/91/HEPU/1279 (assay: Primary Giardia screen at 10 µM (live-cell imaging, automated counting)). Details: 48 h, first singlicate assay.
Assay type: cell-based, Giardia duodenalis
Method: Each compound was assessed in singlicate, at a final concentration of 10 μM (0.4 μL of a 5 mM stock; diluted to a final volume of 200 μL in culture medium; 0.2% DMSO). […] Plates were incubated in sealed chambers filled with 3% O2, 5% CO2 in N2 and growth was assessed at 24 and 48 h using live cell imaging and automated counting as previously described. Growth inhibition was calculated by subtracting media only background counts and determining percentage growth relative to vehicle (0.2% DMSO) controls. The reliability of these assays was assessed by calculating Z’ factors for each plate as previously described.

Compared with `COc1ccc2c(c1)CCCN(C(=O)c1nnc3ccccc3c1N)C2` [SN00773025], `COc1ccccc1N1CCN(C(=O)c2ccc3[nH]c(C)c(C)c3c2)CC1` [SN00775216] is higher in “% Inhibition n=1 48h” value: 10.7% for the first, 36.6% for the second.

Going from `O=C(Cc1noc(-c2ccoc2)n1)NC1CCCCC1` [SN00773041] to `O=C1C(=O)N(C2CCCC2)C(=O)N1Cc1nc(-c2ccsc2)no1` [SN00774178], the “% Inhibition n=1 48h” value falls from 3.1% to 0.0%.

Going from `c1ccc(-c2nnc(CN3CCn4c(nnc4C4CC4)C3)o2)cc1` [SN00773167] to `O=c1ccccn1Cc1nnc(-c2ccc(Br)o2)o1` [SN00773952], the “% Inhibition n=1 48h” value rises from 0.0% to 8.9%.

Compared with `COc1ccc(NC(=O)N2CCN(CC3CCCCN3C)CC2)cn1` (stereo not drawn) [SN00773239], `O=C(c1cnccn1)N1CCN(C(=O)C2CCCC2)CC1` [SN00774707] is higher in “% Inhibition n=1 48h” value: 0.0% for the first, 8.7% for the second.

Compared with `O=C(C1CC1)N1CCCCCC1C1CCN(c2nccc(C(F)(F)F)n2)CC1` (stereo not drawn) [SN00773266], `O=C(C1CCCN1C(=O)C1CCCCC1)N1CCCC(c2nc(-c3ccc(Cl)cc3)no2)C1` (stereo not drawn) [SN00774977] is lower in “% Inhibition n=1 48h” value: 15.0% for the first, 0.0% for the second.

Going from `O=C(NC(c1ccccc1)C1CC1)c1ccc2c(c1)S(=O)(=O)Nc1ncnn1-2` (stereo not drawn) [SN00773273] to `O=C(c1cnn(-c2ccccc2)c1C1CC1)N1CCc2ccccc21` [SN00775113], the “% Inhibition n=1 48h” value rises from 0.0% to 0.5%.

`NC(=O)c1cnc(N2CCC3(CC2)CC3c2nc(-c3cccc(Cl)c3)no2)c(Cl)c1` (stereo not drawn) [SN00773335] and `O=C(c1ccc2[nH]cnc2c1)N1CCN(Cc2cccc(Cl)c2)CC1` [SN00774568] are the same in “% Inhibition n=1 48h” value: 0.0% for the first, 0.0% for the second.

Compared with `O=C(NCc1ccco1)N1CC2C3CCC(C3)C21` (stereo not drawn) [SN00773389], `CC(C)CN1CC(C(=O)N2CCC(Nc3cccnn3)CC2)CC1=O` (stereo not drawn) [SN00774466] is lower in “% Inhibition n=1 48h” value: 2.6% for the first, 0.0% for the second.

Going from `CCCn1nc2c(cc1=O)CN(Cc1nc(-c3ccco3)no1)CC2` [SN00773497] to `CC(C)n1nc2c(cc1=O)CN(Cc1nc(-c3ccoc3)no1)CC2` [SN00773517], the “% Inhibition n=1 48h” value rises from 0.0% to 10.7%.

Compared with `Cc1cc(C(=O)COC(=O)C2(O)CCCCC2)c(C)n1-c1c(C)n(C)n(-c2ccccc2)c1=O` [SN00773547], `O=c1c(Br)c(N2CCCCC2)cnn1-c1ccccc1` [SN00775416] is higher in “% Inhibition n=1 48h” value: 1.1% for the first, 8.1% for the second.

First: Cc1ccccc1Nc1nc(N)nc(CN2C(=O)NC(C)(c3cccc4ccccc34)C2=O)n1 (stereo not drawn) [SN00773551]
Second: Cc1ccc(C2(C)NC(=O)N(Cc3ncc(-c4ccccc4)o3)C2=O)cc1 (stereo not drawn) [SN00774002]
The “% Inhibition n=1 48h” value of the first is higher: 21.3% for the first, 0.0% for the second.

First: C=CCn1c(SCC(=O)N2CCCCC2)nc2scc(-c3ccco3)c2c1=O [SN00773666]
Second: O=c1[nH]c(CN2CCCCC2)nc2scc(-c3cccs3)c12 [SN00775605]
The “% Inhibition n=1 48h” value of the first is higher: 5.6% for the first, 0.0% for the second.

Going from `CCn1c(CN2Cc3ccccc3C[C@H]2C(N)=O)nc2cc(S(=O)(=O)N3CCCCC3)ccc21` [SN00773766] to `O=C(C1CCCN1S(=O)(=O)c1ccc(Br)cc1)N1CCCCC1` (stereo not drawn) [SN00774966], the “% Inhibition n=1 48h” value falls from 10.0% to 3.8%.

First: CC(=O)N1CCN(Cc2nc3cc(Cl)ccc3n2C)CC1 [SN00773871]
Second: Cc1nn(C)c2sc(C(=O)N3CCN(S(=O)(=O)c4ccc(Br)cc4)CC3)cc12 [SN00774390]
The “% Inhibition n=1 48h” value of the first is lower: 0.0% for the first, 10.6% for the second.

First: O=C(Cn1c(=O)c2c(ncn2C2CCCC2)n(Cc2ccccc2)c1=O)Nc1cc(Cl)ccc1F [SN00773912]
Second: CC(C)Cn1nc(C(=O)N2CCCCC2c2nc3ccccc3s2)c2ccccc2c1=O (stereo not drawn) [SN00774515]
The “% Inhibition n=1 48h” value of the first is lower: 0.0% for the first, 2.8% for the second.

`COc1ccc(-c2nnc(CN3C(=O)NC(C)(CCC(C)C)C3=O)o2)cc1` (stereo not drawn) [SN00773994] and `Cc1noc(CN2C(=O)NC(C)(c3ccccc3)C2=O)n1` (stereo not drawn) [SN00774045] are the same in “% Inhibition n=1 48h” value: 0.0% for the first, 0.0% for the second.

Going from `Cn1cc(CN2C(=O)NC(C)(c3ccco3)C2=O)cn1` (stereo not drawn) [SN00774074] to `CCOc1ccccc1N1C(=O)C(=O)N(Cc2nc(C)no2)C1=O` [SN00774186], the “% Inhibition n=1 48h” value falls from 16.2% to 14.0%.

First: Cc1nn(Cc2csc(-c3ccsc3)n2)c(C)c1S(=O)(=O)N1CCc2ccccc21 [SN00774089]
Second: CC(C)(C)OC(=O)N1CCCC(N(Cc2ccccc2)C(=O)Cc2csc(-c3cccnc3)n2)C1 (stereo not drawn) [SN00774555]
The “% Inhibition n=1 48h” value of the first is higher: 7.1% for the first, 0.0% for the second.

Going from `O=C(Nc1cnn(Cc2cn3ccccc3n2)c1)Nc1ccc(F)cc1F` [SN00774154] to `O=C(Nc1ccnn1Cc1ccccn1)c1cccnc1Oc1ccccc1` [SN00775947], the “% Inhibition n=1 48h” value falls from 7.2% to 2.6%.

Compared with `Cc1nn(Cc2ccccc2)c2sc(C(=O)N3CCN(C(=O)N4CCCCC4)CC3)cc12` [SN00774391], `CC(=O)NC1CCCN(C(=O)c2cc3c(C)nn(Cc4ccc(F)cc4)c3s2)C1` (stereo not drawn) [SN00774438] is lower in “% Inhibition n=1 48h” value: 14.0% for the first, 0.0% for the second.

First: CCOC(=O)C1CCN(C(=O)c2ccc3c(c2)C(=O)N(c2ccccc2C)C3=O)CC1 [SN00774484]
Second: O=C(Cc1ccccc1[N+](=O)[O-])N1CCN(C(=O)c2ccc3c(c2)OCO3)CC1 [SN00774731]
The “% Inhibition n=1 48h” value of the first is lower: 0.0% for the first, 9.4% for the second.

First: CC1CCN(C(=O)c2n[nH]c(=O)c3ccccc23)CC1 [SN00774511]
Second: Cc1cc(C(=O)N2CCC(Oc3ccccc3)CC2)[nH]n1 [SN00775052]
The “% Inhibition n=1 48h” value of the first is lower: 0.0% for the first, 4.5% for the second.

First: Cc1ccc(-c2nc(-c3cccnc3)sc2CC(=O)Nc2ccc3nc(C)sc3c2)cc1 [SN00774529]
Second: c1ccc(-n2nnnc2Oc2ccc(-c3nc4ccccc4s3)cc2)cc1 [SN00775768]
The “% Inhibition n=1 48h” value of the first is lower: 0.0% for the first, 19.1% for the second.

Going from `C/C(=C/C(=O)N1CCN(C(=O)c2ccc3[nH]cnc3c2)CC1)C1CC1` [SN00774586] to `Cc1cc(C)n2nc(C(=O)N3CCC(CC(N)=O)CC3)nc2n1` [SN00775259], the “% Inhibition n=1 48h” value falls from 5.9% to 0.0%.

Compared with `COc1ccc(C2CCCN2C(=O)c2cnn(-c3ccc(C(F)(F)F)cn3)c2C)cc1` (stereo not drawn) [SN00774591], `Cc1c(C(=O)N2CCCC2Cn2cccn2)cnn1-c1ccccc1` (stereo not drawn) [SN00774604] is lower in “% Inhibition n=1 48h” value: 35.2% for the first, 16.2% for the second.

Compared with `O=C(NCCN1CCCCCC1=O)C1CCCN1C(=O)C1CCCC1` (stereo not drawn) [SN00774624], `CS(=O)(=O)N1CCCC1C(=O)OCc1cc(=O)n2c3c(sc2n1)CCCC3` (stereo not drawn) [SN00775816] is higher in “% Inhibition n=1 48h” value: 0.0% for the first, 10.4% for the second.

First: Cc1cnc(C(=O)N2CCN(C(=O)OC(C)(C)C)C(C)C2)cn1 (stereo not drawn) [SN00774718]
Second: Cc1cc(C)n2nc(C(=O)N3CCCC(n4cncn4)C3)nc2n1 (stereo not drawn) [SN00775270]
The “% Inhibition n=1 48h” value of the first is lower: 0.0% for the first, 8.1% for the second.

Compared with `COc1ccc(S(=O)(=O)N2CCN(C(=O)c3cc(C)n(C(C)C)c3C)CC2)cc1OC` [SN00774751], `Cc1noc(C)c1S(=O)(=O)N1CCC(C(=O)NCC(c2ccccc2)N(C)C)CC1` (stereo not drawn) [SN00775659] is lower in “% Inhibition n=1 48h” value: 14.4% for the first, 0.0% for the second.

`O=C(c1cc(=O)[nH]c2ccccc12)N1CCN(Cc2ccc3c(c2)OCO3)CC1` [SN00774920] and `COc1ccc(CN2CCCN(c3ncnc4ccccc34)CC2)cc1` [SN00775453] are the same in “% Inhibition n=1 48h” value: 0.0% for the first, 0.0% for the second.

First: O=C(C1CCCN(S(=O)(=O)c2ccccc2)C1)N1CCCC(C(F)(F)F)C1 (stereo not drawn) [SN00774985]
Second: COC(=O)c1cccc2c1CCCN2C(=O)C1CC(=O)N(CCc2ccccc2)C1 (stereo not drawn) [SN00775178]
The “% Inhibition n=1 48h” value of the first is higher: 7.6% for the first, 0.0% for the second.

Compared with `CSc1ccc(N2CC(C(=O)N3c4ccccc4CC3C)CC2=O)cc1` (stereo not drawn) [SN00775126], `COCCc1ccc(Oc2nnnn2-c2ccccc2)cc1` [SN00775761] is higher in “% Inhibition n=1 48h” value: 0.0% for the first, 24.6% for the second.

First: CCOC(=O)c1sc2nc(CN3CCCCC3)nc(NCCC(=O)OC)c2c1C [SN00775388]
Second: Cc1sc2nc(CN3CCC(C)CC3)nc(N(C)Cc3nc4ccsc4c(=O)[nH]3)c2c1C [SN00775403]
The “% Inhibition n=1 48h” value of the first is lower: 0.0% for the first, 11.1% for the second.

Going from `Cc1cccc(NC(=O)C2CCCN(c3c([N+](=O)[O-])c(C)nn3C)C2)n1` (stereo not drawn) [SN00775639] to `Cc1nn(C)c(N2CCC(C(=O)NC(C)C(C)C)CC2)c1[N+](=O)[O-]` (stereo not drawn) [SN00775640], the “% Inhibition n=1 48h” value rises from 0.0% to 7.0%.

Compared with `Cc1cnc(CN2CCOC(CNc3cccnn3)C2)o1` (stereo not drawn) [SN00775722], `O=C(Cn1nnc(-c2cccs2)n1)NCc1ccc(Cl)cc1` [SN00775829] is higher in “% Inhibition n=1 48h” value: 13.5% for the first, 45.7% for the second.

Compared with `CCOc1cc(C(=O)Nc2ccc(C3=CSC4=NCCCN34)cc2)ccc1OC(F)F` [SN00775741], `O=C(Cn1nnc(-c2cccs2)n1)c1ccc(Cl)s1` [SN00775834] is lower in “% Inhibition n=1 48h” value: 4.5% for the first, 2.4% for the second.

First: CCCCn1c(=O)[nH]c(=O)c2c1nc(-c1ccc(-c3cccc([N+](=O)[O-])c3)o1)n2CC [SN00775781]
Second: CCCCn1c(=O)[nH]c(=O)c2c1nc(-c1ccc(-c3ccc([N+](=O)[O-])cc3Cl)o1)n2C [SN00775787]
The “% Inhibition n=1 48h” value of the first is higher: 37.2% for the first, 19.8% for the second.
